Measured values from US20240254439A1, “METHOD FOR PREPARING TASTE BUD ORGANOIDS USING ANTERIOR TONGUE EPITHELIAL CELLS” (Korea University Research and Business Foundation, priority 2023, published 2024).

Legend:
[1] = test system: taste bud organoids from anterior tongue epithelial tissue; assay: Differentiation into taste cells in anterior tongue taste bud organoids, immunofluorescence staining of taste cell markers; format: cell-based, mouse
Protocol: (§1) The tongue was collected from a mouse, and dispase II enzyme (2 mg/mL) (Roche, cat #4942078001) diluted in physiological saline was injected into the space between the epithelium and subepithelial connective tissue to expand the tongue tissue ((2) in FIG. 1), and the expanded tongue tissue was cultured in dispase II enzyme dilution at 37° C. for 30 minutes. The epithelial layer is peeled off from the subepithelial connective tissue to separate the epithelial lamina therefrom, and it is cut into as small an area as possible using tools such as sterilized surgical scissors or a knife in trypsin/EDTA (Gibco, cat #25200072) solution. The finely cut tissues were cultured at 37° C. for 30 minutes. Thereafter, the finely cut tissues are subjected to pressure by continuous pipetting to extract cells from the tissue and form a single cell suspension. The cell pellets obtained by centrifuging this suspension are embedded in an extracellular matrix such as Matrigel at an appropriate ratio.
(§2) All culture media are based on basic culture medium (DMEM/F12+1×GlutaMax+1×HEPES+1×N2 supplement+1×B27 supplement+1×penicillin/streptomycin).
(§3) The single cells embedded in the Matrigel were cultured in differentiation medium 1 (FIRNY+SAG) for 4 days, then cultured for 10 days, while replacing the culture medium with differentiation medium 2 (FIRN+SAG+CHIR_SU5402) and changing the medium culture every 2-3 days.
In culturing taste bud organoids from anterior tongue epithelial tissue, it was confirmed by immunofluorescence staining that when SAG-containing basic culture medium was treated with CHIR99021 (CHIR), which stimulates the Wnt and Notch signaling pathways, the differentiation efficiency into type 1, type 2 and type 3 taste cells all increased (FIG. 4).
In order to confirm the optimization of the expression efficiency of markers for cells that make up taste buds in organoids and the differentiation efficiency into cells that make up taste buds by components other than CHIR, CHIR was added after the first 3 days of culture, and organoids were cultured in culture medium in which FGF was removed or SU5402 was additionally added. As a result, it was confirmed by immunofluorescence staining that when FGF was removed or SU5402 was additionally input after 3 days of culture, the differentiation efficiency into type 2 and type 3 taste cells increased (FIG. 6).

[2] = test system: taste bud organoids from anterior tongue epithelial tissue; assay: Culture efficiency (growth efficiency, size) of taste bud organoids from anterior tongue epithelial tissue; format: cell-based, mouse; conditions: added alone or in combination to basic culture medium supplemented with R-spondin1 and noggin; SAG added under all these conditions (FIG. 2)
Protocol: as §1, §2, §3

Cc1cnc(-c2cnc(NCCNc3ccc(C#N)cn3)nc2-c2ccc(Cl)cc2Cl)[nH]1 [CHIR99021]
differentiation efficiency into type 1, type 2 and type 3 taste cells ([1]; SAG-containing basic culture medium treated with CHIR99021, immunofluorescence staining (FIG. 4)): all increased
differentiation efficiency into type 1, type 2 and type 3 taste cells by CHIR-treated time ([1]; treated with CHIR on days 3, 5 or 7, immunofluorescence staining (FIG. 5)): the earlier treatment with CHIR, the higher the differentiation efficiency

CNC1CCC(N(Cc2cccc(-c3ccncc3)c2)C(=O)c2sc3ccccc3c2Cl)CC1 (stereo not drawn) [SAG]
growth efficiency or size of the organoid itself [2]: no change
differentiation into type 1, type 2 and type 3 taste cells ([1]; SAG added to basic culture medium with R-spondin1 and noggin, with or without EGF, FGF2, IGF1 (FIG. 3)): differentiation into type 1, type 2 and type 3 taste cells was confirmed

Cc1c[nH]c(/C=C2\C(=O)Nc3ccccc32)c1CCC(=O)O [SU5402]
differentiation efficiency into type 2 and type 3 taste cells ([1]; CHIR added after the first 3 days of culture, SU5402 additionally input after 3 days, immunofluorescence staining (FIG. 6)): increased

EGF: growth factor added to the basic culture medium (NSDSECPLSHDGYCLHDGVCMYIEALDKYACNCVVGYIGERCQYRDLKWWELR; UniProt P01133 971-1023, looked up)
growth efficiency or size of the organoid itself [2]: no change

FGF2: fibroblast growth factor 2, protein that regulates cell growth, proliferation and differentiation
growth efficiency or size of the organoid itself [2]: no change
differentiation efficiency into taste cells ([1]; growth factor added to SAG-containing medium with R-spondin1 and noggin, immunofluorescence staining (FIG. 3)): differentiation efficiency increased

IGF1: insulin-like growth factor 1, protein that regulates cell growth, proliferation and differentiation
growth efficiency or size of the organoid itself [2]: no change
